Test results reported in patent US20110275711A1, “METHOD FOR TREATING MACULAR EDEMA” (R-TECH UENO, LTD., priority 2010, published 2011).

Legend:
[1] = tested on: rhVEGF induced retinal vascular leakage; assay: Inhibition of rhVEGF induced retinal vascular leakage in rabbit model (vitreous fluorescein leakage); assay type: in vivo, GD79B rabbit (pigmented); details: 50 μl test composition intravitreal just after rhVEGF 500 ng; for Fluorescein Leakage (AUC) right eye (treated), Mean: measured 48 h after rhVEGF, 1 h after sodium fluorescein i.v., n=8; for Inhibition of fluorescein leakage (vs. control): AUC ratio compared with vehicle control group; for ratio of AUC right/left, Mean ± S.D.: treated eye/untreated eye
Text: The effect of the fatty acid derivative to inhibit retinal vascular leakage in rabbit model.
Animals: GD79B rabbit (pigmented). Each group contains 8 animals.
1) 0.15 w/v % isopropyl unoprostone: formulation example 1 2) 4 w/v % triamcinolone acetonide: Kenacort® Retard (Bristol-Myers Squibb Japan, Tokyo, JP) (positive control) 3) vehicle of isopropyl unoprostone (composition comprising the ingredients of formulation example 1 except for isopropyl unoprostone) (control)
Retinal vascular leakage model animals were prepared. Recombinant human vascular endothelial cell growth factor (rhVEGF) 500 ng (in 50 μl) was injected intravitreally in the right eye of animals. Just after the injection of rhVEGE, 50 μl of test composition 1 or 2 was injected intraviterally in the right eye of the animal. The left eyes were remain untreated (no rhVEGE nor test compositions).
Forty seven (47) hours after the rhVEGF injection, 50 mg/kg of sodium fluorescein (10 w/v % in physiological saline) was injected to the animals via auricular veins. One (1) hour after the injection of sodium fluorescein, the fluorescence intensities in the vitreous body of the treated and untreated eyes were measured by using a corneal spectrophotometer. Based on the measured value, area under the curve (AUC) of the fluorescence intensity that reflects the leakage and the ratio of AUC (treated eye/untreated eye, i.e. right eye/left eye) were calculated. The AUC ratio of isopropyl unoprostone and triamcinolone acetonide administered group were compared to the AUC ratio of the control group to give the inhibition (%) of retinal vascular leakage.

macular edema = details: package insert of Xalatan; cited from earlier work

Row | Structure (SMILES) | Fluorescein Leakage (AUC) right eye (treated), Mean [1] | Inhibition of fluorescein leakage (vs. control) [1] | ratio of AUC right/left, Mean ± S.D. [1] | macular edema as side effect (macular edema)
1 | CCCCCCCC(=O)CC[C@@H]1[C@@H](C/C=C\CCCC(=O)OC(C)C)[C@@H](O)C[C@H]1O [isopropyl unoprostone, (+)-isopropyl (Z)-7-[(1R,2R,3R,5S)-3,5-dihydroxy-2-(3-oxodecyl)cyclopentyl]hept-5-enoate] | 10998.4 | 60% | 3.43 ± 4.01 | 
2 | CC1(C)O[C@@H]2C[C@H]3[C@@H]4CCC5=CC(=O)C=C[C@]5(C)[C@@]4(F)[C@@H](O)C[C@]3(C)[C@]2(C(=O)CO)O1 [triamcinolone acetonide] | 3715.6 | 89% | 0.98 ± 0.44 | 
3 | CC(C)OC(=O)CCC/C=C\C[C@@H]1[C@@H](CC[C@@H](O)CCc2ccccc2)[C@H](O)C[C@@H]1O [latanoprost, (+)-Isopropyl (Z)-7-[(1R,2R,3R,5S)-3,5-dihydroxy-2-[(3R)-3-hydroxy-5-phenylpentyl]cyclopentyl]-5-heptenoate] |  |  |  | causes macular edema as a side effect
